# Reference: patent publication US10364256B2 (GlaxoSmithKline Intellectual Property Development Limited, priority 2015, dated 2019)
# pEC50, pIC50: −log10 of the molar value. Where two headings read alike, the source gives them in different places.
# Key:
# [1] = test system: NQO1 specific enzyme activity in BEAS-2B cells (marker for NRF2 activation); test: BEAS-2B NQO1 MTT Assay; type: cell-based; conditions: Homo sapiens, compound incubated 48 hours, read-out: EC50 (NQO1 specific enzyme activity induction)
# Summary of the method: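 BEAS-2B cells treated with compound for 48 h at 37 °C, then lysed; NQO1 activity in lysates measured kinetically by MTT reduction at A570 over 30 min. pEC50 from 3-parameter fit of ΔOD/min versus log concentration; lysate also taken for Cell Titer Glo.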
# [2] = molecular target: T1, Keap1 Kelch domain (321-609) / TAMRA-labeled 16mer NRF2 peptide (ETGE motif) (Homo sapiens, UniProt Q14145); test: NRF2-Keap1 FP Assay (Keap1 Kelch fluorescence polarization); type: binding; conditions: 20 nM Keap1 (321-609), 8 nM Tamra labeled peptide
# T1 construct: the Kelch domain (321-609) of Keap1 is used
# T1 sequence (Q14145 321-609): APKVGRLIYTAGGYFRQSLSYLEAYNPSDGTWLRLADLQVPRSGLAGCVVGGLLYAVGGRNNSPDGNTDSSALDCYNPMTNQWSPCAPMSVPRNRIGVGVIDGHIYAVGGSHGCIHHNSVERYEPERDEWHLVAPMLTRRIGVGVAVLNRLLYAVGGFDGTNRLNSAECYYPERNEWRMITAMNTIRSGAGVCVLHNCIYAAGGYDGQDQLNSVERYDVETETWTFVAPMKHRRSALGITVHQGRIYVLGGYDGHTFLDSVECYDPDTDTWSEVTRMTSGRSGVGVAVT
# Summary of the method: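 Compound dilutions (3-fold) were incubated 1 hr at room temperature with 20 nM Keap1 Kelch (321-609) and 8 nM TAMRA-labeled ETGE 16mer peptide. Buffer was 50 mM Tris pH 8.0, 100 mM NaCl, 5 mM MgCl2, 1 mM DTT, 2 mM CHAPS, 0.005% BSA. Fluorescence polarization (mP) was normalized to controls and fitted with a four-parameter equation to give pIC50.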
# [3] = molecular target: T2, full length Keap1 protein / full length NRF2 protein (Homo sapiens, UniProt Q14145); test: NRF2-Keap1 TR-FRET Low Protein Assay; type: binding; conditions: 1.25 nM Keap1 FlagHis and 2.5 nM biotin-NRF2 added
# T2 construct: full length NRF2 protein and full length Keap1 protein (Keap1 exists a dimer) are used; His
# T2 sequence (Q14145 whole entry): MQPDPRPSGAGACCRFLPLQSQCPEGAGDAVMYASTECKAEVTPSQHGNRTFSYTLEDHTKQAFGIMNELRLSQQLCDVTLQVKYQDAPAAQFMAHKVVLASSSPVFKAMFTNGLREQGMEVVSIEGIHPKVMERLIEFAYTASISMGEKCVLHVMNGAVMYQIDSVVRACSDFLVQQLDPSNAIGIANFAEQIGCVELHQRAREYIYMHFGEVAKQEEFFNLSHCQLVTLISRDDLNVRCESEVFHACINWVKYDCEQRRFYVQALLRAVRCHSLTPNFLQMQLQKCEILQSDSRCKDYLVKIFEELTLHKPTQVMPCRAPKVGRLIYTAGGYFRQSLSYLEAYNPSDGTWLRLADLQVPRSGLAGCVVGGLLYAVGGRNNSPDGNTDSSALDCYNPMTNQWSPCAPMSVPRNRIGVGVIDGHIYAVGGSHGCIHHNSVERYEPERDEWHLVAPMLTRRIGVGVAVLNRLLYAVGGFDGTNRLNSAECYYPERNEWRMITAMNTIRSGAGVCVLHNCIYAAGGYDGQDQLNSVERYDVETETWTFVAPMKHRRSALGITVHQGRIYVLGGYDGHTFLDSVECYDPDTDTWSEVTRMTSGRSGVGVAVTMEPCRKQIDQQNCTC
# Summary of the method: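 Flag-tagged full-length Keap1 was preincubated with compound (3-fold series) for 2.25 h at 37 °C in Tris pH 8.0/MgCl2/NaCl/BSA/DTT/CHAPS. Biotin-Avi-NRF2 (added at 2.5 nM) was then bound for 1.25 h at 4 °C. Eu-streptavidin/anti-Flag-APC TR-FRET (665/615 nm) was read after 1 h at RT, and pIC50 came from a four-parameter fit.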
SMILES,"pEC50 ([1]; BEAS-2B, 48 h)",pIC50 [2],pIC50 [3],pEC50 [1]
"C[C@@H](Oc1cccc(-c2cccc(-n3ncc(C(=O)O)c3[C@@H]3C[C@H]3c3cn(C)nn3)c2)c1)C1CCCCC1 [Example 162, 1-(3′-((R)-1-Cyclohexylethoxy)-[1,1′-biphenyl]-3-yl)-5-((1R,2R)-2-(1-methyl-1H-1,2,3-triazol-4-yl)cyclopropyl)-1H-pyrazole-4-carboxylic Acid]",7.00 to 8.00,6.00 to 7.00,7.00 to 8.00,–
"CCN1CCN(Cc2cccc(-c3cccc(-n4ncc(C(=O)O)c4[C@@H]4C[C@H]4c4cn(C)nn4)c3)c2)S(=O)(=O)c2ccccc21 [Example 139, 1-(3′-((5-Ethyl-1,1-dioxido-4,5-dihydrobenzo[f][1,2,5]thiadiazepin-2(3H)-yl)methyl)-[1,1′-biphenyl]-3-yl)-5-((1R, 2R)-2-(1-methyl-1H-1,2,3-triazol-4-yl)cyclopropyl)-1H-pyrazole-4-carboxylic acid]",–,7.00 to 8.00,> 8.00,5.00 to 6.00
CCC(Oc1cccc(-c2cccc(-n3ncc(C(=O)O)c3[C@H]3C[C@@H]3c3cn(C)nn3)c2)c1)C1CCCCC1 (mixture of isomers) [Example 242],–,7.00 to 8.00,7.00 to 8.00,7.00 to 8.00
"C[C@H](Oc1cccc(-c2cccc(-n3ncc(C(=O)O)c3[C@@H]3C[C@H]3c3cn(C)nn3)c2)c1F)C1CCCCC1 [Example 104, 1-(3′-((S)-1-cyclohexylethoxy)-2′-fluoro-[1,1′-biphenyl]-3-yl)-5-((1R,2R)-2-(1-methyl-1H-1,2,3-triazol-4-yl)cyclopropyl)-1H-pyrazole-4-carboxylic Acid]",–,7.00 to 8.00,7.00 to 8.00,7.00 to 8.00
"C[C@H](Oc1cccc(-c2cccc(-n3ncc(C(=O)O)c3[C@@H]3C[C@H]3c3cn(C4COC4)nn3)c2)c1)C1CCCCC1 (racemic) [Example 77, 1-(3′-((S)-1-Cyclohexylethoxy)-[1,1′-biphenyl]-3-yl)-5-(trans-2-(1-(oxetan-3-yl)-1H-1,2,3-triazol-4-yl)cyclopropyl)-1H-pyrazole-4-carboxylic acid]",–,7.00 to 8.00,7.00 to 8.00,7.00 to 8.00
"C[C@H](Oc1cccc(-c2cccc(-n3ncc(C(=O)OCOC(=O)C(C)(C)C)c3[C@@H]3C[C@H]3c3cn(C)nn3)c2)c1)C1CCCCC1 [Example 109, (Pivaloyloxy)methyl 1-(3′-((S)-1-cyclohexylethoxy)-[1,1′-biphenyl]-3-yl)-5-((1R,2R)-2-(1-methyl-1H-1,2,3-triazol-4-yl)cyclopropyl)-1H-pyrazole-4-carboxylate]",–,< 5.00,6.00 to 7.00,8.00 to 9.00
"C[C@H](Oc1cccc(-c2cccc(-n3ncc(C(=O)O)c3[C@@H]3C[C@H]3c3cn(C4CN(C)C4)nn3)c2)c1)C1CCCCC1 (racemic) [Example 94, 1-(3′-((S)-1-Cyclohexylethoxy)-[1,1′-biphenyl]-3-yl)-5-(trans-2-(1-(1-methylazetidin-3-yl)-1H-1,2,3-triazol-4-yl)cyclopropyl)-1H-pyrazole-4-carboxylic Acid]",–,7.00 to 8.00,7.00 to 8.00,7.00 to 8.00
"C[C@H](Oc1cccc(-c2cccc(-n3ncc(C(=O)OCCO)c3[C@@H]3C[C@H]3c3cn(C)nn3)c2)c1)C1CCCCC1 [Example 107, 2-Hydroxyethyl 1-(3′-((S)-1-cyclohexylethoxy)-[1,1′-biphenyl]-3-yl)-5-((1R,2R)-2-(1-methyl-1H-1,2,3-triazol-4-yl)cyclopropyl)-1H-pyrazole-4-carboxylate]",–,< 5.00,5.00 to 6.00,6.00 to 7.00
CCC[C@@H]1CCCCN1C(=O)c1cccc(-c2cccc(-n3ncc(C(=O)O)c3[C@H]3C[C@@H]3c3cn(C(C)C)nn3)c2)c1 (racemic) [Example 200],6.00 to 7.00,7.00 to 8.00,> 8.00,–
"C[C@H](Oc1cccc(-c2cccc(-n3ncc(C(=O)O)c3[C@@H]3C[C@H]3c3cn(CCN(C)C)nn3)c2)c1)C1CCCCC1 (racemic) [Example 88, 1-(3′-((S)-1-Cyclohexylethoxy)-[1,1′-biphenyl]-3-yl)-5-(trans-2-(1-(2-(dimethylamino)ethyl)-1H-1,2,3-triazol-4-yl)cyclopropyl)-1H-pyrazole-4-carboxylic acid]",–,7.00 to 8.00,7.00 to 8.00,7.00 to 8.00
"CC[C@H]1COc2ccccc2CN1Cc1cccc(-c2cccc(-n3ncc(C(=O)O)c3[C@@H]3C[C@H]3c3cn(C)nn3)c2)c1 [Example 119, 1-(3′-(((S)-3-Ethyl-2,3-dihydrobenzo[f][1,4]oxazepin-4(5H)-yl)methyl)-[1,1′-biphenyl]-3-yl)-5-((1R,2R)-2-(1-methyl-1H-1,2,3-triazol-4-yl)cyclopropyl)-1H-pyrazole-4-carboxylic Acid]",–,7.00 to 8.00,> 8.00,6.00 to 7.00
"Cn1cc([C@@H]2C[C@H]2c2c(C(=O)O)cnn2-c2cccc(-c3cccc(CCC4CCCCC4)c3)c2)nn1 (racemic) [Example 114, rac-1-(3′-(2-Cyclohexylethyl)-[1,1′-biphenyl]-3-yl)-5-(-2-(1-methyl-1H-1,2,3-triazol-4-yl)cyclopropyl)-1H-pyrazole-4-carboxylic Acid]",–,6.00 to 7.00,7.00 to 8.00,7.00 to 8.00
"C[C@H](Oc1cccc(-c2cccc(-n3ncc(C(=O)O)c3[C@@H]3C[C@H]3c3cnn(C)c3)c2)c1)C1CCCCC1 (racemic) [Example 103, 1-(3′-((S)-1-cyclohexylethoxy)-[1,1′-biphenyl]-3-yl)-5-(trans-2-(1-methyl-1H-pyrazol-4-yl)cyclopropyl)-1H-pyrazole-4-carboxylic Acid]",–,5.00 to 6.00,5.00 to 6.00,6.00 to 7.00
CC(Oc1cccc(-c2cc(O)cc(-n3ncc(C(=O)O)c3[C@H]3C[C@@H]3c3cn(C)nn3)c2)c1)C1CCCCC1 (mixture of isomers) [Example 194],–,6.00 to 7.00,7.00 to 8.00,6.00 to 7.00
"C[C@@H]1Cc2ccc(Br)cc2S(=O)(=O)N(Cc2cccc(-c3cccc(-n4ncc(C(=O)O)c4[C@@H]4C[C@H]4c4cn(C)nn4)c3)c2)C1 (single isomer, unassigned; isomer 2) [Example 135]",–,7.00 to 8.00,7.00 to 8.00,7.00 to 8.00
"CC(Cc1cccc(-c2cccc(-n3ncc(C(=O)O)c3[C@@H]3C[C@H]3c3cn(C)nn3)c2)c1)C1CCCCC1 (single isomer, unassigned) [Example 116e, 1-(3′-((R) or (S)-2-Cyclohexylpropyl)-[1,1′-biphenyl]-3-yl)-5-((1R,2R)-2-(1-methyl-1H-1,2,3-triazol-4-yl)cyclopropyl)-1H-pyrazole-4-carboxylic Acid]",–,7.00 to 8.00,7.00 to 8.00,8.00 to 9.00
"C[C@H](Oc1cccc(-c2cccc(-n3ncc(C(=O)O)c3[C@@H]3C[C@H]3CCCO)c2)c1)C1CCCCC1 (racemic) [Example 102, 1-(3′-((S)-1-Cyclohexylethoxy)-[1,1′-biphenyl]-3-yl)-5-(trans-2-(3-hydroxypropyl)cyclopropyl)-1H-pyrazole-4-carboxylic Acid]",–,5.00 to 6.00,5.00 to 6.00,6.00 to 7.00
"CC(C)n1cc([C@@H]2C[C@H]2c2c(C(=O)O)cnn2-c2cccc(-c3cccc(O[C@@H](C)C4CCCCC4)c3)c2)nn1 (racemic) [Example 91, 1-(3′-((S)-1-Cyclohexylethoxy)-[1,1′-biphenyl]-3-yl)-5-(trans-2-(1-isopropyl-1H-1,2,3-triazol-4-yl)cyclopropyl)-1H-pyrazole-4-carboxylic acid]",–,7.00 to 8.00,7.00 to 8.00,8.00 to 9.00
